Consider one compound from patent EP4813991A1 (iLeadBMS Co., Ltd., priority 2023, dated 2025).

In one experiment the test system is AsPC-1. Kind of experiment: Pancreatic cancer cell proliferation inhibitory activity, AsPC-1. The experiment is classed as cell-based. The conditions noted are these: Homo sapiens, ASPC1; 72 hours, Cell Counting Kit-8, relative IC50. As for the experimental part: Experiments were performed using three types of pancreatic cancer cell lines to measure the cell proliferation inhibitory ability of the compounds of the present invention. AsPC-1, MIA-PaCa2-Control, and Gemcitabine resistant-MIA-PaCa2 cells were dispensed into a 96-well plate at 100 uL of cell suspension per well using DMEM medium containing 10 % FBS and 1 % PS, followed by incubation in a cell incubator at 37 °C and 5 % CO2. The next day, the compound of Example 8 dissolved and diluted in DMSO across 10 concentration ranges and a DMSO control group were treated on the cells for 72 hours. After completion of the compound treatment, 10 µL of Cell Counting Kit-8 (Dojindo) reagent was added to each well of the 96-well plate, followed by incubation for 2 hours. […] were measured after inserting the 96-well plate into an Envision plate reader […]. Relative IC50 values were calculated by fitting a dose-response curve using Graphpad PRISM software.
The pancreatic cancer cell proliferation inhibitory activities of the Example compounds measured by the method described above were evaluated according to the following criteria, and the results are presented in Table 18.
A general note: Tetrazolium dyes change colour on reduction, which living cells bring about.

The next experiment deals with KATO-III. Kind of experiment: Gastric cancer cell proliferation inhibitory activity (Cell Counting Kit-8), KATO-III. Format: cell-based. The conditions noted are these: Homo sapiens, 72 hours, Cell Counting Kit-8, relative IC50. As for the experimental part:
(§1) Experiments were performed using six types of gastric cancer cell lines to measure the cell proliferation inhibitory ability of each Example compound. NCI-N87, SNU601, KATO-III, MKN1, and AGS cells were dispensed into a 96-well plate at 100 µL of cell suspension per well using RPMI1640 medium containing 10 % FBS and 1 % PS, followed by incubation in a cell incubator at 37 °C and 5 % CO2. HS746T cells were dispensed into a 96-well plate at 100 µL of cell suspension per well using DMEM medium containing 10 % FBS and 1 % PS, followed by incubation in a cell incubator at 37 °C and 5 % CO2. The next day, each Example compound dissolved and diluted in DMSO across 10 concentration ranges and a DMSO control group were treated on the cells for 72 hours. After completion of the compound treatment, 10 µL of Cell Counting Kit-8 (Dojindo) reagent was added to each well of the 96-well plate, followed by incubation for 2 hours. […] were measured after inserting the 96-well plate into an Envision plate reader […]. Relative IC50 values were calculated by fitting a dose-response curve using Graphpad PRISM software.
(§2) The gastric cancer cell proliferation inhibitory activities of the Example compounds measured by the method described above were evaluated according to the following criteria, and the results are presented in Table 20.

Another experiment deals with AGS gastric cancer cells. The experiment is described as follows: Zebrafish xenograft gastric cancer model (AGS). The experiment is classed as in vivo. As for the experimental part:
Transgenic Tg(fli1:EGFP)y1 zebrafish embryos were cultured in E3 embryo medium with 0.2 mM 1-phenyl-2-thiourea (PTU) at 28 °C for 48 hours. HCC70 breast cancer cells were cultured using RPMI-1640 medium supplemented with 10 % FBS, and AGS gastric cancer cells were cultured using F-12K medium supplemented with 10 % FBS. Each cell was collected, labeled with Dil red fluorescent dye, and then subcutaneously transplanted into 2-day-old zebrafish embryos. After selecting embryos with tumors, they were classified into experimental groups (20 embryos per group), and each Example compound dissolved and diluted in DMSO across 2 to 3 concentration ranges, a DMSO control group, or a comparative compound were added, followed by incubation at 35.5 °C for 48 hours or 72 hours. In the breast cancer model, primary tumors were collected immediately after transplantation (Day 0) and after 48 hours (Day 2), and in the gastric cancer model, primary tumors were obtained immediately after transplantation (Day 0) and after 72 hours (Day 3). Images of the collected tumors were analyzed for reduction in tumor size compared to the DMSO control group using image software, and the number of disseminated cancer cells after 3 days was manually counted through the captured images, with the results shown in FIGs. 6, 7, and 8. […]

The test system of the next experiment is HS746T cells. The experiment is described as follows: Gastric cancer cell proliferation inhibitory activity (Cell Counting Kit-8), HS746T. The experiment is classed as cell-based. The conditions noted are these: Homo sapiens, 72 hours, Cell Counting Kit-8, relative IC50. As for the experimental part:
as §1, §2

In a further experiment the test system is SNU601. Kind of experiment: Gastric cancer cell proliferation inhibitory activity (Cell Counting Kit-8), SNU601. The experiment is classed as cell-based. Particulars: SNU-601; 72 hours, Cell Counting Kit-8, relative IC50. As for the experimental part: as §1, §2
A further experiment concerns HT29 cells. Kind of experiment: Colorectal cancer cell proliferation inhibitory activity, HT29. The experiment is classed as cell-based. The conditions noted are these: Homo sapiens, HT-29; 72 hours, Cell Counting Kit-8, relative IC50. As for the experimental part:
as §1, with “seven” for “six”, “colorectal” for “gastric”, “DLD-1, LoVo, SW620, SW480, HCT116, HCT15,” for “NCI-N87, SNU601, KATO-III, MKN1,”, “HT29” for “AGS”, “RPMI1640” for “RPMI1640 medium containing 10 % FBS and 1 % PS, followed by incubation in a cell incubator at 37 °C and 5 % CO2. HS746T cells were dispensed into a 96-well plate at 100 µL of cell suspension per well using DMEM”
The colorectal cancer cell proliferation inhibitory activities of the Example compounds measured by the method described above were evaluated according to the following criteria, and the results are presented in Table 19.

As for `CN1CCN(c2cc(NCc3nc4ccc(F)c(F)c4[nH]3)c3ncc(C(F)(F)F)n3n2)CC1` [Example 8, N-((6,7-difluoro-1H-benzo[d]imidazol-2-yl)methyl)-6-(4-methylpiperazin-1-yl)-3-(trifluoromethyl)imidazo[1,2-b]pyridazin-8-amine], the IC50 in the experiment with AsPC-1, with KATO-III, in the experiment on HS746T cells, in the experiment with SNU601 and in the experiment on HT29 cells was no more than 200 nM each time. In addition, the “number of metastatic gastric cancer cells” value with AGS gastric cancer cells (0.1 µM, compared to 1 mM of 5-FU, FIG. 8) is “significant reduction in the number of metastatic gastric cancer cells”. Further, the “reduction in tumor size” value with AGS gastric cancer cells (72 hours, compared to the vehicle, FIG. 7) is recorded as “dose-dependent reduction in tumor size”.
